Values joined by “and” are separate entries in the source; they are usually repeats but may differ in a detail not shown here. Identical values can stand only once. Inconclusive results and toxic doses are left out. No stated cut-off is given here; in the data, active means T/C of 150% or more; inactive means T/C below 125%.
Tested on: L1210 leukemia ip in BDF1 mice, survival T/C
Assay: NCI In Vivo Anticancer Drug Screen. Data for tumor model L1210 Leukemia (intraperitoneal) in B6D2F1 (BDF1) mice
Conditions: endpoint: mean survival time, higher = longer survival
How it was run: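 Transplanted-tumor mice were given test agent; controls received vehicle only. Survival readings from the two groups were divided (treated over control).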

[1] = dose: 50.0 mg/kg/injection, schedule: Q01DX009 (ip), vehicle: saline with Tween-80
[2] = dose: 100.0 mg/kg/injection, schedule: Q01DX009 (ip), vehicle: saline with Tween-80
[3] = dose: 100.0 mg/kg/injection, schedule: Q04DX003 (ip), vehicle: saline with Tween-80
[4] = dose: 200.0 mg/kg/injection, schedule: Q04DX003 (ip), vehicle: saline with Tween-80
[5] = dose: 100.0 mg/kg/injection, schedule: Q01DX009 (ip), vehicle: Klucel (hydroxypropylcellulose) (HPC)
[6] = dose: 100.0 mg/kg/injection, schedule: Q04DX003 (ip), vehicle: Klucel (hydroxypropylcellulose) (HPC)
[7] = dose: 100.0 mg/kg/injection, schedule: Q01DX001 (ip), vehicle: saline
[8] = dose: 200.0 mg/kg/injection, schedule: Q01DX001 (ip), vehicle: saline
[9] = dose: 200.0 mg/kg/injection, schedule: Q04DX003 (ip), vehicle: Klucel (hydroxypropylcellulose) (HPC)
[10] = dose: 400.0 mg/kg/injection, schedule: Q04DX003 (ip), vehicle: Klucel (hydroxypropylcellulose) (HPC)
[11] = dose: 200.0 mg/kg/injection, schedule: Q01DX009 (ip), vehicle: saline with Tween-80
[12] = dose: 400.0 mg/kg/injection, schedule: Q01DX009 (ip), vehicle: saline with Tween-80
[13] = dose: 200.0 mg/kg/injection, schedule: Q01DX009 (ip), vehicle: Klucel (hydroxypropylcellulose) (HPC)
[14] = dose: 400.0 mg/kg/injection, schedule: Q01DX009 (ip), vehicle: Klucel (hydroxypropylcellulose) (HPC)

Measured: T/C

O=C(c1ccccc1)c1c2ccccc2cc2ccccc12
inactive: [1] 91 % of control | [2] 90 % of control | [3] 89 % of control | [4] 89 % of control | dose: 400.0 mg/kg/injection, schedule: Q04DX003 (ip), vehicle: saline with Tween-80 90 % of control

CS(C)=O.CS(C)=O.[Cl][Sn]([Cl])([Cl])[Cl]
inactive: dose: 25.0 mg/kg/injection, schedule: Q01DX009 (ip), vehicle: Klucel (hydroxypropylcellulose) (HPC) 95 % of control | dose: 50.0 mg/kg/injection, schedule: Q01DX009 (ip), vehicle: Klucel (hydroxypropylcellulose) (HPC) 90 % of control | [5] 106 % of control | [6] 95 % of control | dose: 150.0 mg/kg/injection, schedule: Q01DX009 (ip), vehicle: Klucel (hydroxypropylcellulose) (HPC) 104 % of control

CCCCNP(=S)(NCCCC)c1ccccc1
inactive: [7] 98 % of control | [8] 93 % of control | dose: 400.0 mg/kg/injection, schedule: Q01DX001 (ip), vehicle: saline 95 % of control

CCCCCCCNc1ccc(S(=O)(=O)c2ccc(NCCCCCCC)c([N+](=O)[O-])c2)cc1[N+](=O)[O-]
inactive: dose: 25.0 mg/kg/injection, schedule: Q01DX009 (ip), vehicle: DMSO 94 % of control | dose: 50.0 mg/kg/injection, schedule: Q01DX009 (ip), vehicle: DMSO 98 % of control | dose: 100.0 mg/kg/injection, schedule: Q01DX005 (ip), vehicle: DMSO 90 % of control | dose: 100.0 mg/kg/injection, schedule: Q01DX009 (ip), vehicle: DMSO 94 % of control and 98 % of control | dose: 100.0 mg/kg/injection, schedule: Q04DX002 (ip), vehicle: DMSO 100 % of control | dose: 200.0 mg/kg/injection, schedule: Q01DX009 (ip), vehicle: DMSO 101 % of control | dose: 200.0 mg/kg/injection, schedule: Q04DX002 (ip), vehicle: DMSO 88 % of control | dose: 400.0 mg/kg/injection, schedule: Q01DX005 (ip), vehicle: DMSO 90 % of control | dose: 400.0 mg/kg/injection, schedule: Q01DX009 (ip), vehicle: DMSO 100 % of control | dose: 400.0 mg/kg/injection, schedule: Q04DX002 (ip), vehicle: DMSO 96 % of control

CC(=O)C1CCC2C3=CC=C4CC(O)CCC4(C)C3=CCC12C (centres undefined)
inactive: [6] 96 % of control | [9] 93 % of control | [10] 93 % of control

CCC(CO)C(C)C (centres undefined)
inactive: [1] 107 % of control | [2] 102 % of control | [11] 93 % of control

O=C(Nc1ccccc1[N+](=O)[O-])c1ccccc1
inactive: [2] 111 % of control | [11] 106 % of control | [12] 106 % of control

Cc1c[nH]c(=O)c[n+]1[O-]
inactive: dose: 100.0 mg/kg/injection, schedule: Q04DX003 (ip), vehicle: saline 97 % of control | dose: 200.0 mg/kg/injection, schedule: Q04DX003 (ip), vehicle: saline 100 % of control | dose: 400.0 mg/kg/injection, schedule: Q04DX003 (ip), vehicle: saline 100 % of control

C[N+](C)(Cc1ccccc1)/N=C(\[O-])Cc1ccccc1
inactive: [7] 95 % of control | [8] 104 % of control

NC(c1ccccc1)C(N)c1ccccc1 (centres undefined)
inactive: [1] 104 % of control | [2] 102 % of control and 92 % of control | dose: 100.0 mg/kg/injection, schedule: Q04DX003 (ip), vehicle: other 91 % of control | [3] 98 % of control | [11] 95 % of control and 110 % of control | [4] 96 % of control | [12] 98 % of control

CCCCCCCCC(O)CCCCC (centres undefined)
inactive: [5] 100 % of control | [6] 106 % of control | [13] 98 % of control | [9] 103 % of control | [14] 94 % of control | [10] 109 % of control

OCC1(c2ccccc2)CCN(Cc2ccccc2)CC1
inactive: [5] 91 % of control | [6] 104 % of control | [13] 96 % of control | [9] 101 % of control | [14] 91 % of control | [10] 97 % of control

CCOC(=O)C(c1ccsc1)C(C(=O)OCC)c1cccs1 (centres undefined)
inactive: dose: 100.0 mg/kg/injection, schedule: Q01DX001 (ip), vehicle: saline with Tween-80 92 % of control | dose: 200.0 mg/kg/injection, schedule: Q01DX001 (ip), vehicle: saline with Tween-80 98 % of control | dose: 400.0 mg/kg/injection, schedule: Q01DX001 (ip), vehicle: saline with Tween-80 92 % of control

Reference: PubChem BioAssay AID248 (DTP/NCI, 2004)
